{"source": "patent US12545653B2", "about": "“Compound as PPAR agonist and application thereof” (USA Elixiria Biotech Inc., priority 2019, dated 2026)", "key": {"PPARγ": {"biological_target": "T1, PPARγ (Homo sapiens, UniProt P37231)", "T1 construct": "expressed in transfected cells; host or cells: HEK 293 T cells", "T1 sequence (P37231 1-505)": "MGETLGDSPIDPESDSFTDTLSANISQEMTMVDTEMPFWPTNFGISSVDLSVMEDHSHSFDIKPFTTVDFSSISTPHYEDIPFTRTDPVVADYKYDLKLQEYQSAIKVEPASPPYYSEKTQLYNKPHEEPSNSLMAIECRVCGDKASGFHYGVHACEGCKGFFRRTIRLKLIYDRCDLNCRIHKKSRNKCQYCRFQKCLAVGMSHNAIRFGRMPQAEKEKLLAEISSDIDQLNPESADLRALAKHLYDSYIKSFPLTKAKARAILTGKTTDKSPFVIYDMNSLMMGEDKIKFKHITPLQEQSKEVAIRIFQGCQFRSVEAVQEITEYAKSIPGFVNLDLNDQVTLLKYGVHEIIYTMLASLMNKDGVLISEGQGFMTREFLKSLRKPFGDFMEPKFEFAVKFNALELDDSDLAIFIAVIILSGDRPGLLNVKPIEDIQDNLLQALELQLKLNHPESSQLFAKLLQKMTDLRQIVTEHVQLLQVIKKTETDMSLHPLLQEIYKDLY", "assay": "In vitro transcriptional activity of PPARγ gene (PPRE-luciferase reporter, HEK 293 T cells)", "assay_type": "cell-based", "conditions": "HEK 293 T cells transfected with PPARγ expression and PPRE-luc plasmids, 21 hours; read-out: EC50 of PPARγ gene activation", "excerpt": "In this experiment, the PPARγ gene was used as target gene to detect the in vitro transcription activity of the compounds. The compounds of interest were detected was first dissolved with dimethyl sulfoxide (DMSO). […] First two plasmids were constructed: PPARγ protein expression plasmid and luciferase reporter plasmid. They are both from the lentiviral plasmid pLV-CMVIE-ZsGreen-Puro, whose DNA sequence contains the cytomegalovirus immediate early (CMVie) promoter, ZsGreen and Puro dual reporter. The PPARγ expression plasmid pLV-CMVIE-PPAR[…]-ZsGreen-Puro was constructed by cloning full-length coding sequences of the pertinent receptors into pHBLV-CMVIE-ZsGreen-Puro vector. To construct the luciferase (luc) reporter plasmid pLV-PPRE-luc-ZsGreen-Puro, the CMVie promoter in plasmid pHBLV-CMVIE-ZsGreenPuro was first replaced by a peroxisome proliferator responsive element (PPRE) containing fragments comprised the nucleotide sequence 50-[…], repeated four times in tandem, to generate a new plasmid, at a multiple cloning site of which the luc gene was then inserted. […] The compounds used for screening are representatives for compounds listed in Table 2, and Tables 3 of the present invention. […] Cells were distributed in 10-cm tissue culture plates at a density of 5.5 million cells per plate, and then transfected with the luciferase reporter plasmid (6 nanogram/plate) and the PPARγ expression plasmid (18 nanogram/plate). Cells were cultured for 6 hours. […] Then the cells were distributed in 96-well plates at a density of 20,000 cells per well. After incubation for 6 h, compounds or control with different concentration were placed into each well, resulting in the finical concentration of […] with each concentration in triplicate. Twenty-one hours later, promoter activation was detected by the addition of SteadyLite (PerkinElmer, Waltham, MA) and GloMax 96 Microplate Luminometer (Promega, Madison, WI). The amount of Luminometer emitted from each well is positively correlated with the expression of PPARγ gene. A three-parameter Sigmoid function curve was used to fit the obtained data. The abscissa represents the logarithmic value of the concentration, and the ordinate represents the percentage of PPARγ gene activation relative to those of the control. […] In Statistical analysis, the coefficient of variation is used to measure the robustness and repeatability of the experiment. […] The difference is significant with P<0.05. EC50 is a parameter of its activity."}, "klotho gene": {"test_system": "klotho gene", "assay": "In vivo brain transcriptional activity of klotho gene (RT-PCR of brain mRNA)", "parameters": "species or system mouse", "conditions": "10 mg/kg body weight/day tail vein", "protocol": "To verify this hypothesis, adult male Kunming mice were used in the experiments. […] The injection volume is 8 ml/kg body weight. Dimethyl sulfoxide (DMSO) was used as a vehicle control of the compounds. […] The RNA was then reverse-transcribed to the cDNA, and quantified by SYBR Green fluorescence quantitative PCR kit (HaiGene) and a quantitative PCR system (Bio-Rad Min-Opticon Type 2) were used for real-time fluorescent quantitative polymerase chain reaction (RT-PCR). The mouse gene primers were design as follows: • KLOTHO-forward 5′-[…]-3′; • LOTHO-reverse 5′-[…]-3′; • GAPDH-forward 5′-[…]-3′; • GAPDH-reverse 5′-[…]-3′.\nData analysis was performed using the 2^−ΔΔct method. Semi-quantitative values of gene expression were then normalized by the control mean."}, "APP/PS1 transgenic mice": {"test_system": "APP/PS1 transgenic mice", "assay": "Alzheimer's disease model, eight-arm radial water maze and brain gene expression", "assay_type": "in vivo, mouse", "conditions": "30 days in food, 10 mg/kg body weight/day (donepezil 3 mg/kg body weight/day)", "excerpt": "A common indicator used in academia in memory and dementia experiments is the number of errors in the water maze (reference memory). More errors mean poorer memory. On the last 3 days of dosing, eight-arm radial water maze was used by experimenters who were blind to drug treatment. As a classic experimental instrument, to detect slight deficits in learning and memory, the eight-arm water maze is more sensitive than not only Morris maze, but also Six-arm radial water maze. For details, see reference 8: Alamed J et al. Two-day radial-arm water maze learning and memory task; robust resolution of amyloid-related memory deficits in transgenic mice [J]. […] This experiment uses an eight-arm water maze built in accordance with the above literature. The eight-arm water maze is placed in a basin with an interior diameter of 102 cm. Each arm measures 30 cm long, 14.5 cm wide, and 40 cm high. Escape platform is located at the end of one of the arms. In the reference memory version of the task described here, the goal arm is held constant for all trials, with a different start arm on successive trials. On day one, mice received 12 trials, with trials alternating between visible and hidden platform. On day 2 and 3, mice received 12 additional trials but the platform was kept hidden throughout the trials. Entry into an incorrect arm was scored as a spatial reference error. Errors were averaged into three trial blocks, with four blocks per day, e.g., the first block (the 1st to 3rd trial), the second block (the 4th to 6th trial), and so on. […]. The line charts were made with the number of blocks as the abscissa and the average of the number of errors as the ordinate. At the end of the experiments, the cerebral cortex and hippocampus of the mice were removed, RNA was extracted, and the expression of many genes was analyzed by semi-quantitative RT-PCR. […] The difference is significant with P<0.05."}, "LN-229 cells": {"test_system": "LN-229 cells", "assay": "Brain cancer model, LN-229 cells injected into the striatum, tumor volume", "assay_type": "in vivo, mouse", "conditions": "mice with LN-229 cells in striatum, 5 mg/kg body weight/day", "protocol": "The treatment lasted for a total of 30 days. The compounds was dissolved in DMSO and mixed into food pellets. The animals were given ad libitum access to the pellets. […] The difference is significant with P<0.05."}, "[1]": {"test_system": "rat model of hyperglycemia-induced nephropathy", "assay": "Hyperglycemia-induced nephropathy model (streptozotocin)", "assay_type": "in vivo", "conditions": "streptozotocin rats, 5 mg/kg body weight/day in food, 90 days", "protocol": "The method was as follows:\nWild type Sprague-Dawley rats were used. The compounds was dissolved in DMSO and mixed into food pellets. The animals were given ad libitum access to the pellets. […] In addition, 3 days before compound treatment, the animal of group 2 to 4 were given a single intraperitoneal injection of streptozotocin, and 3 days later, blood glucose levels were measured from tail veins using a glucose meter. Animals with blood glucose levels above 500˜650 milligrams per deciliter were considered as hyperglycemia and were used for further study. No any side effect, or significant body weight changes, or significant dietary changes were found during the administration. After 90 days after initiation of treatment, blood pressure values were measured with the tail cuff system. The day before the kidneys were harvested, animals were placed in metabolic cages for 24 h for urine collection, and albumin to creatinine ratio (ACR) was measured. Animals were then fasted for 12 hours and sacrificed under anesthesia with a 10% chloral hydrate solution (0.3 g/kg). Serum samples were isolated and biochemical parameters were analyzed with by enzyme colorimetry in an automatic analyzer (Roche) to determine the FBG (fasting blood glucose) level (unit millimole/L). In addition, fasting insulin (FINS) levels, where the units are milliIU/L, were determined by enzyme-linked immunosorbent assay (ELISA) method with anti-rat insulin antibodies, and TNF-α was detected by rat tumor necrosis factor-α (TNF-α) ELISA kit (BD). […] The difference is significant with P<0.05."}}}
{"smiles": "CCc1ccc(CC/C=C/c2ccc3c(c2)NC(=O)CC3)cc1", "note": "[ELB00727, (E)-7-(4-(4-ethylphenyl)but-1-en-1-yl)-3,4-dihydroquinolin-2(1H)-one]", "values": [{"measurement": "EC50", "setting": "PPARγ", "result": "< 6.4", "unit": "µM"}, {"measurement": "mRNA level of klotho gene in the brain of the mouse relative to vehicle control group", "setting": "klotho gene; after 10 days of continuous injection", "result": "more than twice"}, {"measurement": "fold induction at 10 mg/kg", "setting": "klotho gene; Mus musculus, iv, 720 h, after 30 days of continuous injection, read-out: mRNA level of klotho gene in the brain of the mouse relative to vehicle control group", "result": "> 5"}, {"measurement": "number of errors in water maze on the third day", "setting": "APP/PS1 transgenic mice; 5 on the first day", "result": "~1"}, {"measurement": "reduction in the number of errors (reference memory), third day compared with first day", "setting": "APP/PS1 transgenic mice; eight-arm water maze", "result": "significant"}, {"measurement": "tumor volume at 30 days compared with disease control group", "setting": "LN-229 cells", "result": "significant tumor volume reduction"}, {"measurement": "blood TNF-α level compared with disease control group", "setting": "[1]", "result": "significant TNF-α level reduction"}, {"measurement": "insulin resistance index ISI=ln (FBG*FINS) compared with disease control group", "setting": "[1]", "result": "significant ISI increase"}, {"measurement": "urine albumin to creatinine ratio (ACR) compared with disease control group", "setting": "[1]", "result": "significant ACR reduction"}]}
